Results on one substance are retold here after patent US10905761B2, “Use of a lipopeptide or lipoprotein as an adjuvant in therapeutic or prophylactic vaccinations” (HELMHOLTZ-ZENTRUM FUER INFEKTIONSFORSCHUNG GMBH, priority 2002, dated 2021).

No end group written: not given here.

One data set has as its system immunized animals. Nature of the data set: Tolerability and anti-adjuvant antibodies in immunized animals. The settings on record: after intranasal administration of MALP-2 as adjuvant.
Data set [1] has as its system BALB/c (H-2d) mice. As to the kind of experiment: Kinetics of β-gal-specific IgG responses in sera of mice immunized i.n. or i.p. (Example 4). Type of data set: in vivo. How it is done: Groups of animals (n=5) were immunized either i.n. (A) or i.p. (B) with 50 μg of β-gal ( ), β-gal plus 10 μg of CTB ( ), β-gal plus 0.5 μg of MALP-2 ( ) or pure buffer solution ( ). The days of the immunizations (day 0, 14 and 21) are marked by arrows. The results are shown as the reciprocal log2 of the geometric endpoint titer, and the SEM […] is indicated by means of vertical lines.
Six- to eight-week old female BALB/c (H-2d) mice were purchased from Harlan Winkelmann GmbH (Borchen, Germany) and treated in accordance with local and EU directives. Groups each of 5 mice were immunized on day 1, 14 and 21 either with 40 μg of pure β-galactosidase (Boehringer, Mannheim, Germany) with admixture of 0.5 μg of synthetic MALP-2 or 10 μg of cholera toxin B subunit (CTB; ICN Biomedicals Inc., Ohio) as standard adjuvant. For intranasal administration (i.n.), 10 μl were administered into each nostril, while for the i.p. injection β-galactosidase was resuspended with or without MALP-2 in 400, 100 or 100 μl of PBS. Serum samples were taken at various times (day 0, 13, 20 and 30) and stored at −20° C. until the β-galactosidase-specific antibodies were determined. Nunc-Immuno MaxiSorp assay plates with 96 wells (Nunc, Roskilde, Denmark) were coated with 100 μl of β-gal (Boehringer, Mannheim, Germany) with 5 μg/ml in 0.05 M […] (pH 8.2) per well. Serial two-fold dilutions of the sera or lavages in PBS with 1% BSA and 0.05% Tween-20 were added (100 μl/well) and the plates were incubated at 37° C. for 24 hours. After rinsing, biotinylated γ chain-specific goat anti-mouse IgG (Sigma Chemie, Deisenhofen, Germany) was added, and the plates were incubated at 37° C. for a further hour. After rinsing four times, 100 μl of peroxidase-conjugated streptavidin (Pharmingen) were added to the […], and the plates were incubated at 37° C. for 30 minutes. After rinsing four times, the reactions were developed by means of ABTS in 0.1 M citrate-phosphate buffer (pH 4.35) which contained 0.01% H2O2.

The test system of data set [2] is primary dendritic cells from the bone marrow of BALB/c mice. As to the kind of experiment: In vitro stimulation of primary dendritic cells; […]. Type of data set: cell-based.
Data set [3] concerns BALB/c (H-2d) mice. Type of data set: in vivo. The note with it: mice immunized i.n.; β-gal restimulation.
The subject of data set [4] is BALB/c (H-2d) mice. As to the kind of experiment: β-Galactosidase-specific IgA in lung and vaginal lavages of mice immunized i.n. (Example 5). Type of data set: in vivo. How it is done:
The results are shown as percentage of β-galactosidase-specific IgA in relation to the total IgA present. The SEM is indicated by vertical lines.
The mice were sacrificed on day 31, and the final samples were taken. Vaginal and lung lavages were obtained by rinsing the organs with 1 ml of PBS supplemented by 50 mM EDTA, 0.1% BSA and 10 mM PMSF. The lavages were then centrifuged in order to remove tissue detritus (10 min at 3000×g) and the remaining liquid was stored at −20° C. In order to determine the total IgA concentration in the rinsings from lung and vagina, serial dilutions of the corresponding samples were incubated in microtiter plates, these plates having previously been coated with goat anti-mouse IgA (Sigma Chemie) as capture antibody (100 μl/well). Serial dilutions of purified mouse IgA (Sigma Chemie) were used to produce a standard plot.

In data set [5] the test system is BALB/c (H-2d) mice. As to the kind of experiment: Oral immunization with β-galactosidase and MALP-2 as mucosal adjuvant (serum antibody ELISA, Example 9). Type of data set: in vivo. The settings on record: 100 μg β-gal with 2 μg MALP-2, days 1, 14, 21, 31, serum day 45. How it is done:
FIG. 12: Humoral responses stimulated after vaccination with MALP-2 as adjuvant in a dose 2 μg per animal per immunization. The mice were immunized orally either with β-galactosidase alone (100 μg/dose) or with β-galactosidase mixed with MALP-2 (2 μg/dose) on […]. On day 45 after the first immunization, serum samples were obtained, and the titers of the β-galactosidase-specific antibodies were determined with an ELISA.
Six- to eight-week old female BALB/c (H-2d) mice were purchased from Harlan Winkelmann GmbH (Borchen, Germany) and treated in accordance with local guidelines and directives of the European Community. Groups each of 5 mice were immunized on days 1, 14, 21 and 31 with 100 μg of β-gal (Boehringer, Mannheim, Germany) either alone or with 2 μg of synthetic MALP-2 as adjuvant by the oral route (dose 25 μl). On day 45, serum samples were taken and stored at −20° C. until β-gal-specific antibodies were determined. 96-well Nunc-Immuno MaxiSorp® assay plates (Nunc, Roskilde, Denmark) were coated with 100 μl of β-gal at 5 μg/ml in 0.05 M carbonate buffer (pH 8.2) per well. […] The final value titers have been expressed as the reciprocal logarithmic log2 values of the last dilution which resulted, after incubation for 30 minutes, in an optical density at 405 nm of 0.1 units above the values for the negative controls.
A general note: In an ELISA, binding on a coated surface is turned into a signal by an enzyme label.

[6] abbreviates: 0.5 μg MALP-2 versus 10 μg CTB, i.n.

For the substance “S-[2,3-bispalmitoyloxypropyl]cysteinyl-GNNDESNISFKEK ({S‑(2,3-bispalmitoyloxypropyl)Cys}-GNNDESNISFKEK) [MALP-2]”, in the data set with immunized animals, the anti-MALP-2 antibodies entry is reported as “No anti-MALP-2 antibodies were detectable”. In addition, the “kinetics and overall efficacy of antibody responses compared with 10 μg CTB” value in the data set on BALB/c (H-2d) mice [1] (setting [6]) is on record as “very similar”. The “increase of β-galactosidase-specific IgG serum titers” value with BALB/c (H-2d) mice [1] (i.p., 0.5 μg per animal per dose, versus pure β-galactosidase) is 100 fold. For the same substance, the “titers of specific IgG at the end of the immunization protocol” value with BALB/c (H-2d) mice [1] (β-galactosidase with 0.5 μg MALP-2 i.n.) is “above 500,000”. Besides, the “titers of specific IgG in serum after a single dose” value in the data set on BALB/c (H-2d) mice [1] (β-galactosidase with 0.5 μg MALP-2 i.n., single dose) was > 60,000. Also, the “effect on expression of costimulating molecule CD80 in dendritic cells” value in data set [2] (5 ng/ml MALP-2, 12 and 24 hours) was “slight, if present at all”. Also, the “expression of CD40 and costimulating molecule CD86 in dendritic cells” value in data set [2] (5 ng/ml MALP-2, 12 and 24 hours, versus LPS positive control) is listed as “not increased”. Besides, the “activation of primary dendritic cells” value in data set [2] (5 ng/ml MALP-2, compared with LPS 10 ng/ml) is reported as “only a very weak activation”. The “up regulation of CD40, CD80 and CD86 in dendritic cells” value in data set [2] (10 ng/ml LPS or 5 ng/ml MALP-2) was “only a weak effect, or none”. Also, the “IL-10 content in supernatants of spleen cells stimulated in vitro” value in the data set with BALB/c (H-2d) mice [3] came to 2.2 ng/mL. The “levels of β-galactosidase-specific antibodies in the mucous membranes, MALP-2 versus CTB” value in the data set on BALB/c (H-2d) mice [4] (setting [6]) was “No statistically significant differences”. Besides, in the data set with BALB/c (H-2d) mice [4] (MALP-2 as adjuvant, i.n.), the “antigen-specific IgA, based on the total IgA, in lung lavages” value is on record as 36% and the “antigen-specific IgA, based on the total IgA, in vaginal lavages” value is on record as 23%. Besides, in the data set on BALB/c (H-2d) mice [4] (i.n. immunization, day 31), the “β-galactosidase-specific IgA in lung rinsings” value was “significant increase” and the “β-galactosidase-specific IgA in vaginal rinsings” value is reported as “significant concentrations”. Moreover, the “serum immune responses to β-gal after oral immunization” value with BALB/c (H-2d) mice [5] is “Immune responses to β-gal were observed”.
